Laboratory results: US20260250278A1, “PHENYL-SUBSTITUTED DIHYDRONAPHTHYRIDINE COMPOUNDS, AND PREPARATION AND USE THEREOF” (SUZHONG PHARMACEUTICAL GROUP CO., LTD., priority 2022, published 2026)

Columns and labels:
CYP3A4 = CYP3A4 (Homo sapiens, UniProt P08684); assay: biochemical; format: in vitro ADME
[1] = Pharmacokinetic test of rats (intravenous and intragastric administration); format: in vivo; details: SD rats
Procedure: This experiment was intended to evaluate a pharmacokinetic behavior of an implementing compound after intravenous injection or intragastric administration in the rats. Intravenous injection administration: a test compound was prepared into 0.2 mg/mL clear solution, a solvent was 10% ethanol, 40% polyethylene glycol 400 and 50% water, and after administration, plasma was collected 0.083 hour, 0.25 hour, 0.5 hour, 1 hour, 2 hours, 4 hours, 8 hours and 24 hours later. Intragastric administration: a test compound was prepared into 1 mg/mL clear solution, a solvent was 10% ethanol/40% polyethylene glycol 400/50% water, and after administration, plasma was collected 0.25 hour, 0.5 hour, 1 hour, 2 hours, 4 hours, 8 hours and 24 hours later.
(§1) A concentration of the test compound in the plasma was determined by high-performance liquid chromatography-tandem mass spectrometry (LC-MS/MS). Retention time, chromatogram collection and chromatogram integration of compounds and internal standards were treated by software Analyst (Applied Biosystems), and data statistics was treated by software Analyst (Applied Biosystems).
(§2) A plasma concentration was treated by a non-atrioventricular model of Winnonlin™ Version 6.1 (Pharsight, Mountain View, CA) pharmacokinetic software, and pharmacokinetic parameters were calculated by a linear logarithmic trapezoid method.
Pharmacokinetic parameters of the compounds in the rats with an intravenous injection dose of 1 mg/kg and an intragastric and oral dose of 5 mg/kg were as shown in Table 20 below.

[2] = Pharmacokinetic test of mice (intravenous administration); format: in vivo; details: mouse, plasma; CD1 mice, intravenous 1 mg/kg
Procedure: This experiment was intended to evaluate a pharmacokinetic behavior of a compound after intravenous injection or intragastric administration in the mice. Intravenous injection administration: a test compound was prepared into 0.2 mg/mL clear solution, a solvent was 10% ethanol/40% polyethylene glycol 400/50% ultrapure water, and after administration, plasma was collected 0.083 hour, 0.25 hour, 0.5 hour, 1 hour, 2 hours, 4 hours, 8 hours, 24 hours and 48 hours later.
as §1, §2

[3] = rat, plasma, intragastric and oral administration 5 mg/kg
[4] = rat, plasma, intravenous 1 mg/kg

CYP3A4, sequence (P08684 2-503 limits assumed): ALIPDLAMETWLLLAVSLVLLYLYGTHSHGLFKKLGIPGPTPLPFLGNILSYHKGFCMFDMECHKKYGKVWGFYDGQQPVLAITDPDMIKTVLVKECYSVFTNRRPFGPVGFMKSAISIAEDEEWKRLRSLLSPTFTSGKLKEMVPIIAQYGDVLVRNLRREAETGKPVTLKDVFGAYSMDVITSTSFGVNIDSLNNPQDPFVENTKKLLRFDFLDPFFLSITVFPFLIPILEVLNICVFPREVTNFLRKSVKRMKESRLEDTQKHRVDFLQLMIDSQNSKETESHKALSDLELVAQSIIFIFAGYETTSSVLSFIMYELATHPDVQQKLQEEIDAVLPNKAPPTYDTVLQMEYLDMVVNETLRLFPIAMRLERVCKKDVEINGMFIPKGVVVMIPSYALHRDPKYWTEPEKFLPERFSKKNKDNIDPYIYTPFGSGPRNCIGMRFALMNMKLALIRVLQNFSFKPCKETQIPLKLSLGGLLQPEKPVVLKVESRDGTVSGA

SMILES | IC50 (CYP3A4; CYP3A4-5M IC50, human CYP3A4, CYP3A4-5M) [µM] | IC50 (CYP3A4; CYP3A4-5T IC50, human CYP3A4, CYP3A4-5T) [µM] | F ([1]; intragastric and oral administration 5 mg/kg) [%] | AUC(0-t) [1, 3] [µg·h/mL] | Cmax [1, 3] [ng/mL] | AUC(0-t) [1, 4] [µg·h/mL] | clearance [1, 4] [mL/min/kg] | half-life [1, 4] [h] | AUC(0-t) [2] [µg·h/mL]
CCOc1ncc(C)c2c1[C@H](c1ccc(C#N)cc1OC)C(C(N)=O)=C(C)N2 [Finerenone, reference compound] | 9.98 | 8.02 | 60.3 | 307 | 23800 | 91.2 | 0.34 | 9.62 | 142
CCOc1nc2ccsc2c2c1[C@H](c1ccc(C#N)cc1OC)C(C(N)=O)=C(C)N2 [Example 38, (S)-6-(4-cyano-2-methoxyphenyl)-5-ethoxy-8-methyl-6,9-dihydrothieno[3,2-h][1,6]naphthyridine-7-formamide] | – | – | – | – | – | – | – | – | 2.55
